Values quoted from earlier work as cited in US9309575B2, “Mutant strains of Escherichia coli, a method of testing potential antibacterial agents using said strains as well as a testing kit” (Instytut Biologii Doswiadczalnej IM. M. Nenckiego Pan, priority 2010, dated 2016).

Tested on: gram-negative bacteria
Conditions: at concentrations of 1-10 μg/ml

With polymyxin B nonapeptide [PMBN] as the substance, how does the biocidal properties read?
Its biocidal properties is “does not exhibit biocidal properties”.
